Marks after values point to notes of the source that are not given here.
System: acetic acid inducing stomach ulcer model
Assay: acetic acid inducing stomach ulcer model
Type: in vivo, male white rats
Conditions: for gastric lesion area: oral 30 mg/kg once a day for 10 days after operation; for lesion inhibition rate: oral 30 mg/kg once a day for 10 days, vs control group
Text: Efficacy of extract from bark of Liriodendron tulipifera obtained in Preparation Example 1 has been measured according to acetic acid inducing stomach ulcer model. Only solvent has been administered into control group, while extract from the bark of Liriodendron tulipifera has been administered into experimental group. Further, ranitidine and rebamipide used for drug for treating stomach ulcer have been also administered into experimental group. The experiment has been carried out according to the method disclosed in Okabe and Pfeifferi, Did. Dis. 17, pp. 619-628, 1972. 250 g weights of male white rats have been anesthetized with ether and the stomach has been exposed. 50 μl of 20% acetic acid has been injected into the subserosa in fundus of stomach using microliter syringe. Then, the abdomen of rat has been sutured. The drug has been orally administered into the rats at 10:00 am once a day for 10 days after operation. After 4 hour from final administration, animals have been sacrificed by ether. After removing the stomach of rat, the stomach has been spread out. The lesion area has been measured using the photo from digital camera. Computer program Image J 1.38 (NIH, Bethesda, Md.) has been applied for measuring gastric lesion area (mm^2) The lesion inhibition rate and 50% effective dose (ED50) have been calculated as the same manner of HCl-EtOH model.

CNC(=C[N+](=O)[O-])NCCSCc1ccc(CN(C)C)o1 [ranitidine]
gastric lesion area: 34.8 ± 4.83* mm^2
lesion inhibition rate: 47.1%

O=C(NC(Cc1cc(=O)[nH]c2ccccc12)C(=O)O)c1ccc(Cl)cc1 (stereo not shown) [rebamipide]
gastric lesion area: 40.1 ± 7.43 mm^2
lesion inhibition rate: 39.1%

— US20150011623A1, “Pharmaceutical Composition Containing as Active Ingredient Extract From Bark of Liriodendron Tulipifera” (CHO DANG PHARM CO., LTD., priority 2012, published 2015)
